Laboratory results published in article PMC4104496 (Clinical cancer research : an official journal of the …, 2012).
Like-named read-outs stand apart in the source and are kept apart here.

Assays:
[1] = for Cmax/dose / Tmax: iv
[2] = clinical; settings: human, in vivo, iv

CCc1c2c(nc3ccc(OC(=O)N4CCC(NCCCCC(=O)O)CC4)cc13)-c1cc3c(c(=O)n1C2)COC(=O)C3(O)CC (stereo not drawn) [APC, 7-ethyl-10-(4-N-(5-aminopentanoic acid)-1-piperidine)carbonyloxycamptothecin]
AUC/dose ([1]; human, in vivo): 13 (73) h*ng/mL/mg/m^2
CL or CL/F ([1]; human, in vivo): 96 (49) L/h/m^2
T1/2 (terminal elimination half-life) ([1]; human, in vivo): 58 (8) d
terminal disposition half-life ([1]; human, in vivo): 53 days
Cmax/dose ([1]; human, in vivo): 0.08 (118) ng/mL/mg/m^2
Tmax ([1]; human, in vivo): 20 (41) h
V or V/F ([1]; in vivo): 170 L/m^2
trough concentrations ([1]; in vivo): detectable

CCc1c2c(nc3ccc(OC(=O)N4CCC(N)CC4)cc13)-c1cc3c(c(=O)n1C2)COC(=O)[C@]3(O)CC [NPC, 7-ethyl-10-(4-amino-1-piperidino) carbonyloxycamptothecin]
plasma concentrations ([1]; in vivo): near the limit of quantitation

CCc1c2c(nc3ccc(O[C@@H]4O[C@H](C(=O)O)[C@@H](O)[C@H](O)[C@H]4O)cc13)-c1cc3c(c(=O)n1C2)COC(=O)[C@]3(O)CC [SN-38-G, SN-38-glucuronide]
T1/2 (terminal elimination half-life) ([1]; Mean (%CV), plasma, 76 patients, after etirinotecan pegol 58 to 245 mg/m^2): 61 (37) d
trough concentrations ([1]; after etirinotecan pegol dosing with all 3 schedules): detectable
terminal disposition half-life ([1]; plasma, patients, after etirinotecan pegol administration): 61 days

CCc1c2c(nc3ccc(O)cc13)-c1cc3c(c(=O)n1C2)COC(=O)[C@]3(O)CC [SN-38]
AUC/dose ([1]; human, in vivo): 8 (52) h*ng/mL/mg/m^2
CL or CL/F ([1]; human, in vivo): 170 (59) L/h/m^2
T1/2 (terminal elimination half-life) ([1]; human, in vivo): 50 (28) d
Cmax/dose ([1]; human, in vivo): 0.02 (55) ng/mL/mg/m^2
Tmax ([1]; human, in vivo): 13 (170) h
V or V/F ([1]; in vivo): 27 L/m^2
trough concentrations ([1]; in vivo): detectable

CCc1c2c(nc3ccc(OC(=O)N4CCC(N5CCCCC5)CC4)cc13)-c1cc3c(c(=O)n1C2)COC(=O)[C@]3(O)CC [irinotecan, reference compound]
trough concentrations ([1]; in vivo): detectable
Tmax [2]: 0.167 days
